# How the values were obtained:
# phospho-473Ser Akt = assay: Western blot of Akt and phospho-Akt in PC-3 cells; assay type: cell-based, human; details: 1 μM
# Experimental: Immunoblotting. The general procedure for the Western blot analysis of Akt and phospho-Akt is described as follows. Cells were washed in PBS, resuspended in SDS sample buffer sonicated by an ultrasonic sonicator for 5 sec, and boiled for 5 min. After brief centrifugation, equivalent protein concentrations from the soluble fractions were resolved in 10% SDS-polyacrylamide gels on a Minigel apparatus, and transferred to a nitrocellulose membrane using a semi-dry transfer cell. The transblotted membrane was washed three times with TBS containing 0.05% Tween 20 (TBST). After blocking with TBST containing 5% nonfat milk for 60 min., the membrane was incubated with the primary antibody at 1:1,000 dilution in TBST-5% low fat milk at 4° C. for 12 h, and was then washed three times with TBST. The membrane was probed with goat anti-rabbit IgG-HRP conjugates (1:1,000) for 1 h at room temperature, and was washed with TBST three times. The immunoblots were visualized by enhanced chemiluminescence.
# HOP-92 = assay: NCI DTP cell line screen (SRB), Non-Small Cell Lung Cancer; assay type: cell-based
# SK-MEL-5 = assay: NCI DTP cell line screen (SRB), Melanoma; assay type: cell-based, human; details: for TGI: in M (unit assumed)
# Experimental: (§1) Screening of compounds 70 and 71 against several cancer cell lines The human tumor cell lines of the cancer screening panel are grown in RPMI 1640 medium containing 5% fetal bovine serum and 2 mM L-glutamine. For a typical screening experiment, cells are inoculated into 96 well microtiter plates in 100 μL at plating densities ranging from 5,000 to 40,000 cells/well depending on the doubling time of individual cell lines. After cell inoculation, the microtiter plates are incubated at 37° C., 5% CO2, 95% air and 100% relative humidity for 24 h prior to addition of experimental drugs.
# (§2) After 24 h, two plates of each cell line are fixed in situ with TCA, to represent a measurement of the cell population for each cell line at the time of drug addition (Tz). Experimental drugs are solubilized in dimethyl sulfoxide at 400-fold the desired final maximum test concentration and stored frozen prior to use. At the time of drug addition, an aliquot of frozen concentrate is thawed and diluted to twice the desired final maximum test concentration with complete medium containing 50 μg/ml gentamicin. Additional four, 10-fold or ½ log serial dilutions are made to provide a total of five drug concentrations plus control. Aliquots of 100 μl of these different drug dilutions are added to the appropriate microtiter wells already containing 100 μl of medium, resulting in the required final drug concentrations.
# (§3) Following drug addition, the plates are incubated for an additional 48 h at 37° C., 5% CO2, 95% air, and 100% relative humidity. For adherent cells, the assay is terminated by the addition of cold TCA. Cells are fixed in situ by the gentle addition of 50 μl of cold 50% (w/v) TCA (final concentration, 10% TCA) and incubated for 60 minutes at 4° C. The supernatant is discarded, and the plates are washed five times with tap water and air dried. Sulforhodamine B (SRB) solution (100 μl) at 0.4% (w/v) in 1% acetic acid is added to each well, and plates are incubated for 10 minutes at room temperature. After staining, unbound dye is removed by washing five times with 1% acetic acid and the plates are air dried. Bound stain is subsequently solubilized with 10 mM trizma base, and the absorbance is read on an automated plate reader at a wavelength of 515 nm. For suspension cells, the methodology is the same except that the assay is terminated by fixing settled cells at the bottom of the wells by gently adding 50 μl of 80% TCA (final concentration, 16% TCA). Using the seven absorbance measurements [time zero, (Tz), control growth, (C), and test growth in the presence of drug at the five concentration levels (Ti)], the percentage growth is calculated at each of the drug concentrations levels. Percentage growth inhibition is calculated as: [(Ti−Tz)/(C−Tz)]×100 for concentrations for which Ti>/=Tz [(Ti−Tz)/Tz]×100 for concentrations for which Ti<Tz
# (§4) Three dose response parameters are calculated for each experimental agent. […] The drug concentration resulting in total growth inhibition (TGI) is calculated from Ti=Tz. […] Values are calculated for each of these three parameters if the level of activity is reached; however, if the effect is not reached or is exceeded, the value for that parameter is expressed as greater or less than the maximum or minimum concentration tested.
# (§5) The methods described were used to test compounds 70 and 71 on a panel of sixty cell lines under a screening service provided by the Developmental Therapeutics Program at the National Institutes of Health. Shown in FIG. 1C are 1, RPMI-8226 leukemia cells; 2; NCI-H322M non-small cell lung cancer cells; 3, HT29 colon cancer cells; 4, U251 CNS cancer cells; 5, SK-MEL-28 melanoma cancer cells; 6, SK-OV-3 ovarian cancer cells; 7, RXF 393 renal cancer cells; 8, PC-3 prostate cancer cells; 9, MDA-MB-231 breast cancer cells.
# ACHN = assay: NCI DTP cell line screen (SRB), Renal Cancer; assay type: cell-based, human; details: for TGI: in M (unit assumed)
# Experimental: as §1, §2, §3, §4, §5
# CAKI-1 = assay: NCI DTP cell line screen (SRB), Renal Cancer; assay type: cell-based, human; details: for TGI: in M (unit assumed)
# Experimental: as §1, §2, §3, §4, §5
# RXF 393 = assay: NCI DTP cell line screen (SRB), Renal Cancer; assay type: cell-based, human
# Experimental: as §1, §2, §3, §4, §5
# UO-31 = assay: NCI DTP cell line screen (SRB), Renal Cancer; assay type: cell-based, human; details: for TGI: in M (unit assumed)
# Experimental: as §1, §2, §3, §4, §5
smiles,measurement,setting,value
"N=C(N)Nc1ccc(-n2nc(C(F)(F)F)cc2-c2ccc3c(ccc4ccccc43)c2)cc1 [Compound 71, 4-[5-(2-Phenanthrenyl)-3-(trifluoromethyl)-1H-pyrazol-1-yl]-phenyl-guanidine]",phospho-Akt level,phospho-473Ser Akt,substantial decrease in the phospho-Akt level
same,GI50,HOP-92,1010 nM
same,TGI,HOP-92,2.26E−06
same,Mean Optical Densities,HOP-92; Log10 Concentration −4.0,0.767
same,Percent Growth,HOP-92; Log10 Concentration −4.0,−28%
same,Mean Optical Densities,HOP-92; Log10 Concentration −5.0,0.089
same,Percent Growth,HOP-92; Log10 Concentration −5.0,−92%
same,Mean Optical Densities,HOP-92; Log10 Concentration −6.0,1.361
same,Percent Growth,HOP-92; Log10 Concentration −6.0,50%
same,Mean Optical Densities,HOP-92; Log10 Concentration −7.0,1.541
same,Percent Growth,HOP-92; Log10 Concentration −7.0,82%
same,Mean Optical Densities,HOP-92; Log10 Concentration −8.0,1.567
same,Percent Growth,HOP-92; Log10 Concentration −8.0,86%
same,GI50,SK-MEL-5,2220 nM
same,Mean Optical Densities,SK-MEL-5; Log10 Concentration −4.0,0.363
same,Percent Growth,SK-MEL-5; Log10 Concentration −4.0,−34%
same,Mean Optical Densities,SK-MEL-5; Log10 Concentration −5.0,0.143
same,Percent Growth,SK-MEL-5; Log10 Concentration −5.0,−74%
same,Mean Optical Densities,SK-MEL-5; Log10 Concentration −6.0,1.812
same,Percent Growth,SK-MEL-5; Log10 Concentration −6.0,116%
same,Mean Optical Densities,SK-MEL-5; Log10 Concentration −7.0,1.762
same,Percent Growth,SK-MEL-5; Log10 Concentration −7.0,111%
same,Mean Optical Densities,SK-MEL-5; Log10 Concentration −8.0,1.611
same,Percent Growth,SK-MEL-5; Log10 Concentration −8.0,97%
same,TGI,SK-MEL-5,4.07E−06
same,GI50,ACHN,1670 nM
same,Mean Optical Densities,ACHN; Log10 Concentration −4.0,0.291
same,Percent Growth,ACHN; Log10 Concentration −4.0,−22%
same,Mean Optical Densities,ACHN; Log10 Concentration −5.0,0.034
same,Percent Growth,ACHN; Log10 Concentration −5.0,−91%
same,Mean Optical Densities,ACHN; Log10 Concentration −6.0,0.964
same,Percent Growth,ACHN; Log10 Concentration −6.0,90%
same,Mean Optical Densities,ACHN; Log10 Concentration −7.0,0.902
same,Percent Growth,ACHN; Log10 Concentration −7.0,81%
same,Mean Optical Densities,ACHN; Log10 Concentration −8.0,0.898
same,Percent Growth,ACHN; Log10 Concentration −8.0,80%
same,TGI,ACHN,3.15E−06
same,GI50,CAKI-1,1830 nM
same,Mean Optical Densities,CAKI-1; Log10 Concentration −4.0,0.315
same,Percent Growth,CAKI-1; Log10 Concentration −4.0,−47%
same,Mean Optical Densities,CAKI-1; Log10 Concentration −5.0,−0.067
same,Percent Growth,CAKI-1; Log10 Concentration −5.0,−100%
same,Mean Optical Densities,CAKI-1; Log10 Concentration −6.0,1.804
same,Percent Growth,CAKI-1; Log10 Concentration −6.0,103%
same,Mean Optical Densities,CAKI-1; Log10 Concentration −7.0,1.642
same,Percent Growth,CAKI-1; Log10 Concentration −7.0,89%
same,Mean Optical Densities,CAKI-1; Log10 Concentration −8.0,1.735
same,Percent Growth,CAKI-1; Log10 Concentration −8.0,97%
same,TGI,CAKI-1,3.22E−06
same,TGI,RXF 393,2.91E−06
same,Mean Optical Densities,RXF 393; Log10 Concentration −4.0,0.385
same,Percent Growth,RXF 393; Log10 Concentration −4.0,−4%
same,Mean Optical Densities,RXF 393; Log10 Concentration −5.0,0.156
same,Percent Growth,RXF 393; Log10 Concentration −5.0,−61%
same,Mean Optical Densities,RXF 393; Log10 Concentration −6.0,0.629
same,Percent Growth,RXF 393; Log10 Concentration −6.0,53%
same,Mean Optical Densities,RXF 393; Log10 Concentration −7.0,0.629
same,Percent Growth,RXF 393; Log10 Concentration −7.0,53%
same,Mean Optical Densities,RXF 393; Log10 Concentration −8.0,0.582
same,Percent Growth,RXF 393; Log10 Concentration −8.0,42%
same,GI50,UO-31,1570 nM
same,Mean Optical Densities,UO-31; Log10 Concentration −4.0,0.288
same,Percent Growth,UO-31; Log10 Concentration −4.0,−35%
same,Mean Optical Densities,UO-31; Log10 Concentration −5.0,−0.030
same,Percent Growth,UO-31; Log10 Concentration −5.0,−100%
same,Mean Optical Densities,UO-31; Log10 Concentration −6.0,1.332
same,Percent Growth,UO-31; Log10 Concentration −6.0,87%
same,Mean Optical Densities,UO-31; Log10 Concentration −7.0,1.407
same,Percent Growth,UO-31; Log10 Concentration −7.0,94%
same,Mean Optical Densities,UO-31; Log10 Concentration −8.0,1.375
same,Percent Growth,UO-31; Log10 Concentration −8.0,91%
same,TGI,UO-31,2.92E−06
"NCC(=O)Nc1ccc(-n2nc(C(F)(F)F)cc2-c2ccc3c(ccc4ccccc43)c2)cc1 [Compound 70, 2-Amino-N-{4-[5-(2-phenanthrenyl)-3-(trifluoromethyl)-1H-pyrazol-1-yl]-phenyl}-acetamide]",phospho-Akt level,phospho-473Ser Akt,substantial decrease in the phospho-Akt level
same,TGI,HOP-92,3.07E−06
same,Percent Growth,HOP-92; Log10 Concentration −4.0,−75%
same,Percent Growth,HOP-92; Log10 Concentration −5.0,−91%
same,Percent Growth,HOP-92; Log10 Concentration −6.0,87%
same,Percent Growth,HOP-92; Log10 Concentration −7.0,89%
same,Percent Growth,HOP-92; Log10 Concentration −8.0,96%
same,Percent Growth,SK-MEL-5; Log10 Concentration −4.0,−34%
same,Percent Growth,SK-MEL-5; Log10 Concentration −5.0,−75%
same,Percent Growth,SK-MEL-5; Log10 Concentration −6.0,69%
same,Percent Growth,SK-MEL-5; Log10 Concentration −7.0,88%
same,Percent Growth,SK-MEL-5; Log10 Concentration −8.0,91%
same,TGI,SK-MEL-5,3.02E−06
same,Percent Growth,ACHN; Log10 Concentration −4.0,−16%
same,Percent Growth,ACHN; Log10 Concentration −5.0,−60%
same,Percent Growth,ACHN; Log10 Concentration −6.0,70%
same,Percent Growth,ACHN; Log10 Concentration −7.0,102%
same,Percent Growth,ACHN; Log10 Concentration −8.0,94%
same,TGI,ACHN,3.45E−06
same,Percent Growth,CAKI-1; Log10 Concentration −4.0,−44%
same,Percent Growth,CAKI-1; Log10 Concentration −5.0,−75%
same,Percent Growth,CAKI-1; Log10 Concentration −6.0,42%
same,Percent Growth,CAKI-1; Log10 Concentration −7.0,95%
same,Percent Growth,CAKI-1; Log10 Concentration −8.0,87%
same,TGI,CAKI-1,2.27E−06
same,Percent Growth,"RXF 393; RXF 393, Log10 Concentration −4.0",10%
same,Percent Growth,"RXF 393; RXF 393, Log10 Concentration −5.0",−56%
same,Percent Growth,"RXF 393; RXF 393, Log10 Concentration −6.0",56%
same,Percent Growth,"RXF 393; RXF 393, Log10 Concentration −7.0",75%
same,Percent Growth,"RXF 393; RXF 393, Log10 Concentration −8.0",91%
same,Percent Growth,UO-31; Log10 Concentration −4.0,−36%
same,Percent Growth,UO-31; Log10 Concentration −5.0,−64%
same,Percent Growth,UO-31; Log10 Concentration −6.0,68%
same,Percent Growth,UO-31; Log10 Concentration −7.0,84%
same,Percent Growth,UO-31; Log10 Concentration −8.0,84%
same,TGI,UO-31,3.29E−06
